The values that follow come from ChEMBL document CHEMBL3244201, “Synthesis and specific pressor activity of [1-aspartic acid,5-valine,9-serine]angiotensin I ("fowl angiotensin I")” (1977).

What all share (assay type): functional
For test [1], the species on record is Rattus norvegicus. Kind of test: Pressor activity in rat assessed as weight basis relative to mammalian [Val5]angiotensin 2.
The species named for test [2] is Rattus norvegicus. Kind of test: Pressor activity in rat assessed as weight basis relative to mammalian [Ile5]angiotensin 2.
The species named for test [3] is Rattus norvegicus. Kind of test: Pressor activity in rat assessed as weight basis relative to mammalian [Val5]angiotensin 1.
For test [4], the species on record is Rattus norvegicus. Kind of test: Pressor activity in rat assessed as molar basis relative to mammalian [Ile5]angiotensin 1.
Test [5] is filed under the species Rattus norvegicus. Kind of test: Pressor activity in rat assessed as molar basis relative to mammalian [Ile5]angiotensin 2.
For test [6], the species on record is Rattus norvegicus. Kind of test: Pressor activity in rat assessed as molar basis relative to mammalian [Val5]angiotensin 1.
The species entered for test [7] is Rattus norvegicus. Kind of test: Pressor activity in rat assessed as weight basis relative to mammalian [Ile5]angiotensin 1.
Test [8] is filed under the species Rattus norvegicus. Kind of test: Pressor activity in ganglion-blocked vagotomized rat assessed as weight basis relative to mammalian [Ile5]angiotensin 2.
The species named for test [9] is Rattus norvegicus. Kind of test: Pressor activity in rat assessed as molar basis relative to mammalian [Val5]angiotensin 2.

For `CC[C@H](C)[C@H](NC(=O)[C@H](Cc1ccc(O)cc1)NC(=O)[C@@H](NC(=O)[C@H](CCCNC(=N)N)NC(=O)[C@@H](N)CC(=O)O)C(C)C)C(=O)N[C@@H](Cc1cnc[nH]1)C(=O)N1CCC[C@H]1C(=O)N[C@@H](Cc1ccccc1)C(=O)O` [ANGIOTENSIN II], the Activity in the test filed under Rattus norvegicus [1] was 73.5%; in the test listed under Rattus norvegicus [2], 100%.
On the same counts, the results for H-DRVYIHPFHL-OH are 43.1% and 58.6%.
With H-DRVYVHPF-OH [[Val5] - ANGIOTENSIN II], the figures for the Activity in the test filed under Rattus norvegicus [1] and in the test listed under Rattus norvegicus [2] were 100% and 136%, respectively.
As for H-DRVYVHPFHL-OH, the Activity in the test filed under Rattus norvegicus [1] turned out to be 37.8%; in the test filed under Rattus norvegicus [2] it was 51.5%.
As for H-DRVYVHPFSL-OH, the Activity in the test listed under Rattus norvegicus [3] is 182.8%; in the test filed under Rattus norvegicus [1], 69.2%; in the test filed under Rattus norvegicus [4], 157%; in the test listed under Rattus norvegicus [5] it was 114.4%; in the test filed under Rattus norvegicus [6] it was 180.8%; in the test filed under Rattus norvegicus [2] it was 94.1%. In addition, the Activity in the test listed under Rattus norvegicus [7] was found to be 160.4%; in the test listed under Rattus norvegicus [8], 91.2%; in the test listed under Rattus norvegicus [9], 85.1%.
